Results: patent publication US20260138961A1, “MODULATORS OF MITOCHONDRIAL DNA REPLICATION” (Pretzel Therapeutics, Inc., priority 2022, published 2026)

The compounds below were run against T1, POLγA:R309C (Homo sapiens, UniProt P54098, R309C) (assay: DNA polymerization assay, POLγA:R309C mutant). Settings: stimulation of polymerase activity, primed M13mp18 ssDNA, 37° C. 2 hours.
T1 sequence (P54098 1-1239 R309C): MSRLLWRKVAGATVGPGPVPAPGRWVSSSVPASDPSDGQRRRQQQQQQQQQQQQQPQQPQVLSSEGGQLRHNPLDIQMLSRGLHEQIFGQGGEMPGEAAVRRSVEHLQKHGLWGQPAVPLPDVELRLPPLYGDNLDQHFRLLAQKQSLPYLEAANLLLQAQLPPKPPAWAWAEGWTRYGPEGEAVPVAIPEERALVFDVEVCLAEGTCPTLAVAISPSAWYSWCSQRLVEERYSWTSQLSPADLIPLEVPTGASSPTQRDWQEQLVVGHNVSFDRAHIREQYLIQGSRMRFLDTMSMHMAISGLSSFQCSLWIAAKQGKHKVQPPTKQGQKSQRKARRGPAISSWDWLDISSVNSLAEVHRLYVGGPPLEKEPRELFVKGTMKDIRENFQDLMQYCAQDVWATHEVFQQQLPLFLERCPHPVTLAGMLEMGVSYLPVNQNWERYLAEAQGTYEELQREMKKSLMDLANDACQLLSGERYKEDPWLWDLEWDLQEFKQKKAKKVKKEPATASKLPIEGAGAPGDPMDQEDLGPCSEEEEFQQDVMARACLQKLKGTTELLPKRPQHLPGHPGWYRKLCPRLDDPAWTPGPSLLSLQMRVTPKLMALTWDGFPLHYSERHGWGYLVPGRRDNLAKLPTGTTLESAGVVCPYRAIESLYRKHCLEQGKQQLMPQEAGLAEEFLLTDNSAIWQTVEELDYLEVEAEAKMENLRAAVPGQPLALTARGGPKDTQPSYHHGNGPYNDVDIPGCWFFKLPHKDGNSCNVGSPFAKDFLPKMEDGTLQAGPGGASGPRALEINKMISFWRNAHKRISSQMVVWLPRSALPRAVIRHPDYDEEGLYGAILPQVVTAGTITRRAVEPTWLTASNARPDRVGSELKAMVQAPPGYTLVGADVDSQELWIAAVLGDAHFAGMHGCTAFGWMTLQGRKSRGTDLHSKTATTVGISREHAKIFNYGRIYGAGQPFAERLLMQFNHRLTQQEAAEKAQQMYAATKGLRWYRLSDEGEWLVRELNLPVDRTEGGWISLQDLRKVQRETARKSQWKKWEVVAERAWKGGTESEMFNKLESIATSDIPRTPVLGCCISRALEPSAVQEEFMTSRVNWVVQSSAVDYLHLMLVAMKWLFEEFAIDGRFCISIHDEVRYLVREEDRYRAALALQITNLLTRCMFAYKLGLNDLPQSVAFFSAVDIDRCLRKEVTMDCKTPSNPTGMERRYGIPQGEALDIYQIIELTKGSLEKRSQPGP
T1 sequence (Q9UHN1 1-485 partner): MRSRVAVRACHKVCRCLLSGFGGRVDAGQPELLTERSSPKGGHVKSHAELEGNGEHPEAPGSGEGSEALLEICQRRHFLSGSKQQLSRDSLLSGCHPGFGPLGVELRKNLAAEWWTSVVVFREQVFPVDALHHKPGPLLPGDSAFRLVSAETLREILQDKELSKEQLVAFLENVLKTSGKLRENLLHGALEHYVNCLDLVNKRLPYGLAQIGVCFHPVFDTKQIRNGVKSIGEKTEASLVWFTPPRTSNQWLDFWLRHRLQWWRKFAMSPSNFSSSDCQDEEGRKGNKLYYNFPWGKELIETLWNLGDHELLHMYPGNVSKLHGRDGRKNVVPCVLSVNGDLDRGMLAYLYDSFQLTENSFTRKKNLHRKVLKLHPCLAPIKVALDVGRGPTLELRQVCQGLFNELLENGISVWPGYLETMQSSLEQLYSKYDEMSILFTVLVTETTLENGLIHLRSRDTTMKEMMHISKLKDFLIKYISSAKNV
Type: biochemical
Procedure: DNA Polymerization Assay to Monitor Effects on Human Wildtype POLγ and Four Disease-Causing Mutant Variants of Human POLγ.
The ability of small molecules to stimulate the polymerase activity of POLγ was analyzed in a quantitative fluorescence SYBR Green I assay with fluorescence intensity (FI) readout.
In the presence of dNTPs, wild type human POLγ and mutant derivatives thereof were incubated with single-stranded, circular M13mp18 ssDNA hybridized to a short DNA oligonucleotide that functions as a primer for initiation of DNA synthesis. POLγ and mutant derivatives thereof will extend the primer and use the M13mp18 molecule as a template to synthesize long stretches of double-stranded DNA. SYBR Green I, which is a double-stranded DNA-binding dye, was used to quantify formation of double-stranded DNA in the reaction. When bound to double-stranded DNA, SYBR Green I fluorescence increases by up to 100-fold.
The assay was performed in the 384-well plate format. Upon addition of compounds, changes in double-stranded DNA synthesis activity can be monitored by following effects on fluorescent intensity.
The reactions also contained the accessory POLγB subunit, and the human mitochondrial single-stranded DNA binding protein (mtSSB).
The DNA template mixture used in the assay contained 0.5 nM primed M13 mp18 ssDNA, 400 nM mtSSB, 0.1 mM Tris-HCl (pH 8.0), 0.1 mM dNTP, 10 mM MgCl2, 0.1 mg/mL BSA, 1 mM TCEP solution, and 0.02% Triton X-100. The DNA template mixture for the wild type protein contained either 100 μM dNTP, 1 μM dNTP, or 0.1 μM dNTP, designated in Table 2 as 100 μM, 1 μM, and 0.1 μM, respectfully.
Microplates with compounds (0.1 μL in each well) to be tested in the assay were prepared from 10 mM compound stocks in 100% DMSO, and equal amounts of DMSO without any compound were added to positive and negative control wells.
The protein mixture was dispensed (5 μL into each well) into compound plates and incubated at 37° C. for 15 minutes. After incubation, 5 μL of the DNA template mixture was dispensed into each well. The plates were then incubated at 37° C. for 2 hours.
During incubation, a combined stop buffer and detection reagent solution was prepared. The buffer contained 25 mM EDTA (pH 8.0), 0.02% Triton X-100, and SYBR Green I [Invitrogen] diluted 10,000× (for fluorescent readout). EDTA will stop the enzymatic reaction by chelating magnesium ions.

AC50 [nM]	Compound
1000	Cc1csc(-c2cccc(NS(=O)(=O)c3cc(C)c(Cl)cc3C)c2)n1 [Example 20, 4-chloro-2,5-dimethyl-N-(3-(4-methylthiazol-2-yl)phenyl)benzenesulfonamide]
1000	Cc1cnc(-c2cccc(NS(=O)(=O)c3cc(C)c(Cl)cc3C)c2)s1 [Example 21, 4-chloro-2,5-dimethyl-N-(3-(5-methylthiazol-2-yl)phenyl)benzenesulfonamide]
900	Cc1ccc(C)c(S(=O)(=O)Nc2cccc(-c3nccs3)c2)c1 [Example 60]
1000	Cc1cc(S(=O)(=O)Nc2cccc(-c3cc(C4CC4)[nH]n3)c2)c(C)cc1Cl [Example 64, 4-chloro-N-(3-(5-cyclopropyl-1H-pyrazol-3-yl)phenyl)-2,5-dimethylbenzenesulfonamide]
5000	CC[C@@H]1CCCN1C(=O)c1cccc(NS(=O)(=O)c2cc(C)c(Cl)cc2C)c1 [Example 65, (R)-4-chloro-N-(3-(2-ethylpyrrolidine-1-carbonyl)phenyl)-2,5-dimethylbenzenesulfonamide]
12000	Cc1cc(-c2cccc(NS(=O)(=O)c3cc(C)c(Cl)cc3C)c2)n[nH]1 [Example 66, 4-chloro-2,5-dimethyl-N-(3-(5-methyl-1H-pyrazol-3-yl)phenyl)benzenesulfonamide]
7000	Cc1cc(S(=O)(=O)Nc2cccc(-c3cc[nH]n3)c2)c(C)cc1Cl [Example 68, N-(3-(1H-pyrazol-3-yl)phenyl)-4-chloro-2,5-dimethylbenzenesulfonamide]
1000	Cc1cc(S(=O)(=O)Nc2ccc3ccn(C(C)C)c3c2)c(C)cc1Cl [Example 69, 4-chloro-N-(1-isopropyl-1H-indol-6-yl)-2,5-dimethylbenzenesulfonamide]
51000	Cc1nc2ccc(NS(=O)(=O)c3cc(C)c(Cl)cc3C)cc2o1 [Example 70, 4-chloro-2,5-dimethyl-N-(2-methylbenzo[d]oxazol-6-yl)benzenesulfonamide]
8000	Cc1cc2cc(NS(=O)(=O)c3cc(C)c(Cl)cc3C)ccc2[nH]1 [Example 184, 4-chloro-2,5-dimethyl-N-(2-methyl-1H-indol-5-yl)benzenesulfonamide]
